The results in this text go back to US9951065B2 (Gilead Sciences, Inc., priority 2015, dated 2018).

As a reminder, the EC50 is the concentration at which the effect is half-maximal. A higher EC50 goes with a less potent agent.

T1 sequence (P14902 whole entry): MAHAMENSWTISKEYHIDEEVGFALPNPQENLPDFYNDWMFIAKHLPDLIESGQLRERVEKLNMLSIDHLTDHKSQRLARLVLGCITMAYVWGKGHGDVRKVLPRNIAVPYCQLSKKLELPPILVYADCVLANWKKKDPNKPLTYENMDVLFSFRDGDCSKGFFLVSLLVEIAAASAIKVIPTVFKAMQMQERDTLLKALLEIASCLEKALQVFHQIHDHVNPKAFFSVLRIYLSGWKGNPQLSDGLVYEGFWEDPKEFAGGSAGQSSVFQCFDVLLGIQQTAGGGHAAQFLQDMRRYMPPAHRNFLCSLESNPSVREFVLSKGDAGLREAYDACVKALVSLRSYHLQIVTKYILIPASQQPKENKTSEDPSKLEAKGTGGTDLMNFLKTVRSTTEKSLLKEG

This experiment concerns the target T1, IDO1 (Homo sapiens, UniProt P14902).
T1 construct: HeLa cells were treated with a test compound in the presence of IFNγ, which induces IDO1 expression; host or cells: H1-HeLa cells, IDO1 induced with IFNγ
As to the kind of experiment: Cell-based (HeLa) assay for measurement of IDO1 inhibition (kynurenine levels in supernatant after IFNγ induction). The note with it: HeLa cells, IFNγ-induced IDO1, kynurenine in supernatant after 48 hour incubation; geometric mean of a minimum of four determinations. The method, boiled down: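 IDO1 activity is read as kynurenine released into the medium, detected with Ehrlich's reagent (p-dimethylaminobenzaldehyde) at 480 nm after TCA treatment. HeLa cells were exposed 48 h to compounds in 0.5% DMSO alongside IFNγ induction. Values normalized to no-IFNγ and IFNγ controls; four-parameter EC50 given as geometric mean of ≥4 determinations.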
`O/N=C(\Nc1ccc(F)c(Cl)c1)c1ccnc2nc(CNCC3CCCOC3)[nH]c12` (centres unmarked) [Example 129, N-(3-Chloro-4-fluorophenyl)-N′-hydroxy-2-((((tetrahydro-2H-pyran-3-yl)methyl)amino)methyl)-1H-imidazo[4,5-b]pyridine-7-carboximidamide] displayed a concentration for a half-maximal effect (EC50) of 2580 nM.

As to `O/N=C(\Nc1ccc(F)c(Cl)c1)c1ccnc2nc(CNCc3ncccn3)[nH]c12` [Example 130, N-(3-Chloro-4-fluorophenyl)-N′-hydroxy-2-(((pyrimidin-2-ylmethyl)amino)methyl)-1H-imidazo[4,5-b]pyridine-7-carboximidamide], the response was half-maximal at 2810 nM (EC50).

In the case of `O/N=C(\Nc1ccc(F)c(Cl)c1)c1ccnc2nc(CNCCCN3CCOCC3)[nH]c12` [Example 131, N-(3-Chloro-4-fluorophenyl)-N′-hydroxy-2-(((3-morpholinopropyl)amino)methyl)-1H-imidazo[4,5-b]pyridine-7-carboximidamide], the EC50 is 3020 nM.

`O/N=C(\Nc1ccc(F)c(Cl)c1)c1ccnc2nc(CNC3CCOCC3)[nH]c12` [Example 132, N-(3-Chloro-4-fluorophenyl)-N′-hydroxy-2-(((tetrahydro-2H-pyran-4-yl)amino)methyl)-1H-imidazo[4,5-b]pyridine-7-carboximidamide] had a 50% effective concentration (EC50) of 3430 nM.

In turn, `O/N=C(\Nc1ccc(F)c(Cl)c1)c1ccnc2nc(CNCc3ccncc3)[nH]c12` [Example 133, N-(3-Chloro-4-fluorophenyl)-N′-hydroxy-2-(((pyridin-4-ylmethyl)amino)methyl)-1H-imidazo[4,5-b]pyridine-7-carboximidamide] gave an EC50 of 3710 nM.

Compound `O/N=C(\Nc1ccc(F)c(Cl)c1)c1ccnc2nc(CNCc3cnccn3)[nH]c12` [Example 134, N-(3-Chloro-4-fluorophenyl)-N′-hydroxy-2-(((pyrazin-2-ylmethyl)amino)methyl)-1H-imidazo[4,5-b]pyridine-7-carboximidamide] had an EC50 of 3990 nM.

As for `O/N=C(\Nc1ccc(F)c(Cl)c1)c1ccnc2nc(CNCC3CCOC3)[nH]c12` (centres unmarked) [Example 135, N-(3-Chloro-4-fluorophenyl)-N′-hydroxy-2-((((tetrahydrofuran-3-yl)methyl)amino)methyl)-1H-imidazo[4,5-b]pyridine-7-carboximidamide], the EC50 was found to be 5110 nM.

Consider `CN(C)CCNCc1nc2nccc(/C(=N/O)Nc3ccc(F)c(Cl)c3)c2[nH]1` [Example 136, N-(3-Chloro-4-fluorophenyl)-2-(((2-(dimethylamino)ethyl)amino)methyl)-N′-hydroxy-1H-imidazo[4,5-b]pyridine-7-carboximidamide], for which a half-maximal effect (EC50) was put at 6270 nM.

On to `O/N=C(\Nc1ccc(F)c(Cl)c1)c1ccnc2nc(CNCCc3ncccn3)[nH]c12` [Example 137, N-(3-Chloro-4-fluorophenyl)-N′-hydroxy-2-(((2-(pyrimidin-2-yl)ethyl)amino)methyl)-1H-imidazo[4,5-b]pyridine-7-carboximidamide], for which a half-maximal effect (EC50) was put at 7490 nM.

On to `OCCCNCc1nc2nccc(/C(=N/O)Nc3ccc(F)c(Cl)c3)c2[nH]1` [Example 138, N-(3-Chloro-4-fluorophenyl)-N′-hydroxy-2-(((3-hydroxypropyl)amino)methyl)-1H-imidazo[4,5-b]pyridine-7-carboximidamide], for which the midpoint of the response, the EC50, lay at 8240 nM.

With `O/N=C(\Nc1ccc(F)c(Cl)c1)c1ccnc2nc(CN3CCCC3)[nH]c12` [Example 139, N-(3-Chloro-4-fluorophenyl)-N′-hydroxy-2-(pyrrolidin-1-ylmethyl)-1H-imidazo[4,5-b]pyridine-7-carboximidamide], a half-maximal response (EC50) required 1400 nM.

As for `O/N=C(\Nc1ccc(F)c(Cl)c1)c1ccnc2nc(CN3CCCCC3)[nH]c12` [Example 140, N-(3-Chloro-4-fluorophenyl)-N′-hydroxy-2-(piperidin-1-ylmethyl)-1H-imidazo[4,5-b]pyridine-7-carboximidamide], a half-maximal response (EC50) required 1610 nM.

Take `CC(C)(C)CNCc1nc2nccc(/C(=N/O)Nc3ccc(F)c(Cl)c3)c2[nH]1` [Example 141, N-(3-Chloro-4-fluorophenyl)-N′-hydroxy-2-((neopentylamino)methyl)-1H-imidazo[4,5-b]pyridine-7-carboximidamide]: the EC50 stood at 1680 nM.

`O/N=C(\Nc1ccc(F)c(Cl)c1)c1ccnc2nc(CNCC(F)F)[nH]c12` [Example 142, N-(3-Chloro-4-fluorophenyl)-2-(((2,2-difluoroethyl)amino)methyl)-N′-hydroxy-1H-imidazo[4,5-b]pyridine-7-carboximidamide]: the response was half-maximal at 5160 nM (EC50).

Turning to `CC(C)(CO)CNCc1nc2nccc(/C(=N/O)Nc3ccc(F)c(Cl)c3)c2[nH]1` [Example 143, N-(3-Chloro-4-fluorophenyl)-N′-hydroxy-2-(((3-hydroxy-2,2-dimethylpropyl)amino)methyl)-1H-imidazo[4,5-b]pyridine-7-carboximidamide], a half-maximal response (EC50) required 7350 nM.

`O/N=C(\Nc1ccc(F)c(Cl)c1)c1ccnc2nc(CNCc3nccs3)[nH]c12` [Example 144, N-(3-Chloro-4-fluorophenyl)-N′-hydroxy-2-(((thiazol-2-ylmethyl)amino)methyl)-1H-imidazo[4,5-b]pyridine-7-carboximidamide] gave an EC50 of 8230 nM.

Turning to `CC(=O)NCc1nc2nccc(/C(=N/O)Nc3ccc(F)c(Cl)c3)c2[nH]1` [Example 145, N-((7-(N-(3-Chloro-4-fluorophenyl)-N′-hydroxycarbamimidoyl)-1H-imidazo[4,5-b]pyridin-2-yl)methyl)acetamide], the EC50 is 9760 nM.

Consider `O/N=C(\Nc1ccc(F)c(Cl)c1)c1ccnc2nc(-c3cccs3)[nH]c12` [Example 146, N-(3-Chloro-4-fluorophenyl)-N′-hydroxy-2-(thiophen-2-yl)-1H-imidazo[4,5-b]pyridine-7-carboximidamide], for which the EC50 amounted to 4220 nM.

`O/N=C(\Nc1ccc(F)c(Cl)c1)c1ccnc2nc(-c3cccnc3)[nH]c12` [Example 147, N-(3-Chloro-4-fluorophenyl)-N′-hydroxy-2-(pyridin-3-yl)-1H-imidazo[4,5-b]pyridine-7-carboximidamide]: the EC50 amounted to 1930 nM.

Compound `O/N=C(\Nc1ccc(F)c(Cl)c1)c1ccnc2nc(-c3ccc[nH]3)[nH]c12` [Example 148, N-(3-Chloro-4-fluorophenyl)-N′-hydroxy-2-(1H-pyrrol-2-yl)-1H-imidazo[4,5-b]pyridine-7-carboximidamide] showed a concentration for a half-maximal effect (EC50) of 2230 nM.

Regarding `O/N=C(\Nc1ccc(F)c(Cl)c1)c1ccnc2nc(-c3ncc[nH]3)[nH]c12` [Example 149, N-(3-Chloro-4-fluorophenyl)-N′-hydroxy-2-(1H-imidazol-2-yl)-1H-imidazo[4,5-b]pyridine-7-carboximidamide], the EC50 came out at 529 nM.

`O/N=C(\Nc1ccc(F)c(Cl)c1)c1ccnc2nc(-c3ccn[nH]3)[nH]c12` [Example 150, N-(3-Chloro-4-fluorophenyl)-N′-hydroxy-2-(1H-pyrazol-5-yl)-1H-imidazo[4,5-b]pyridine-7-carboximidamide] registered an EC50 of 8480 nM.

Turning to `Cc1c[nH]c(-c2nc3nccc(/C(=N/O)Nc4ccc(F)c(Cl)c4)c3[nH]2)n1` [Example 151, N-(3-Chloro-4-fluorophenyl)-N′-hydroxy-2-(4-methyl-1H-imidazol-2-yl)-1H-imidazo[4,5-b]pyridine-7-carboximidamide], the EC50 was determined as 463 nM.

Regarding `O/N=C(\Nc1ccc(F)c(Cl)c1)c1ccnc2nc(C3CCCN3)[nH]c12` (centres unmarked) [Example 152, N-(3-Chloro-4-fluorophenyl)-N′-hydroxy-2-(pyrrolidin-2-yl)-1H-imidazo[4,5-b]pyridine-7-carboximidamide], it took 4040 nM to reach a half-maximal effect (EC50).

`Nc1nc2nccc(/C(=N/O)Nc3ccc(F)c(Cl)c3)c2[nH]1` [Example 153, 2-Amino-N-(3-chloro-4-fluorophenyl)-N′-hydroxy-1H-imidazo[4,5-b]pyridine-7-carboximidamide]: the EC50 worked out at 897 nM.

The compound `O/N=C(\Nc1ccc(F)c(Cl)c1)c1ccnc2nc(NC3CC3)[nH]c12` [Example 154, N-(3-Chloro-4-fluorophenyl)-2-(cyclopropylamino)-N′-hydroxy-1H-imidazo[4,5-b]pyridine-7-carboximidamide] showed an EC50 of 529 nM.

With `O/N=C(\Nc1ccc(F)c(Cl)c1)c1ccnc2nc(Nc3ccccc3)[nH]c12` [Example 155, N-(3-Chloro-4-fluorophenyl)-N′-hydroxy-2-(phenylamino)-1H-imidazo[4,5-b]pyridine-7-carboximidamide], a half-maximal response (EC50) required 2150 nM.

Take `O/N=C(\Nc1ccc(F)c(Cl)c1)c1ccnc2nc(NCCc3ccccc3)[nH]c12` [Example 156, N-(3-Chloro-4-fluorophenyl)-N′-hydroxy-2-(phenethylamino)-1H-imidazo[4,5-b]pyridine-7-carboximidamide]: the EC50 worked out at 769 nM.

`O/N=C(\Nc1ccc(F)c(Cl)c1)c1ccnc2nc(NCC(F)(F)F)[nH]c12` [Example 157, N-(3-Chloro-4-fluorophenyl)-N′-hydroxy-2-((2,2,2-trifluoroethyl)amino)-1H-imidazo[4,5-b]pyridine-7-carboximidamide] yielded a concentration giving a half-maximal response (EC50) of 1090 nM.

On to `CNc1nc2nccc(/C(=N/O)Nc3ccc(F)c(Cl)c3)c2[nH]1` [Example 158, N-(3-Chloro-4-fluorophenyl)-N′-hydroxy-2-(methylamino)-1H-imidazo[4,5-b]pyridine-7-carboximidamide], for which a half-maximal response (EC50) required 460 nM.

Take `CC(C)OC(=O)Nc1nc2nccc(/C(=N/O)Nc3ccc(F)c(Cl)c3)c2[nH]1` [Example 159, Isopropyl (7-(N-(3-chloro-4-fluorophenyl)-N′-hydroxycarbamimidoyl)-1H-imidazo[4,5-b]pyridin-2-yl)carbamate]: the EC50 came out at 453 nM.

`CCOC(=O)Nc1nc2nccc(/C(=N/O)Nc3ccc(F)c(Cl)c3)c2[nH]1` [Example 160, Ethyl (7-(N-(3-chloro-4-fluorophenyl)-N′-hydroxycarbamimidoyl)-1H-imidazo[4,5-b]pyridin-2-yl)carbamate] had an EC50 of 423 nM.
